For one data set, the system named is LPS challenged mice. As to the kind of experiment: Mouse LPS challenge model, serum TNF-alpha readout. As to conditions: LPS challenged mice treated with alanine scanned SP16 peptides; compared to Dexamethasone (FIG. 10). The class given is in vivo. How it is done:
In FIG. 10A the mice were treated with alanine scanned SP16 peptide. […] Based on this alanine screen, and without wishing to be bound by a theory, it appears that the C- and N-terminal amino acids contribute to the anti-inflammatory effect of the SP16 peptide. […] Groups of 3 animals were injected with 0.2 mg/kg peptide and subjected to LPS challenge. Serum TNF-alpha levels were determined by ELISA. Several peptides provided the same level of protection as 1 mg/kg Dexamethasone.
The ability of peptide drugs was tested to for their potential for the reduction of inflammatory cytokines following treatment with purified bacterial lipopolysaccharide (LPS)—a major component of bacterial cell wall of Gram negative bacteria. A model of inflammation was used wherein mice were injected with LPS, which induced a transient immune response and a surge of serum inflammatory cytokines. The immune response peaks after 90 minutes and subsides after 24 hours. The levels of key serum inflammatory markers were compared between mice treated and untreated with LPS 90 minutes after injection.
We designed 18 different peptides based on the hAAT sequence (Accession #AAB59371), and had these synthesized using conventional FMOC chemistry. To assess in vivo anti-inflammatory and therapeutic potential, the peptides were tested in a mouse lipopolysaccharide (LPS) challenge model with serum TNFα levels as readout. Using dexamethasone as reference, groups of 3 animals were IP injected with 0.2 mg/kg peptide 2 hours prior to an LPS challenge, and serum TNFα levels determined 30 min after the LPS challenge, by ELISA. The best performing peptide reduced serum TNFα levels equivalent to those achieved with 1 mg/kg dexamethasone. Next, shortened versions of this peptide were synthesized, tested in the mouse LPS challenge model, and a 17 amino acid peptide, SP16, emerged as a lead development candidate for further characterization. Next, SP16 was tested in a lethal endotoxemia model, which models endotoxemia following acute radiation exposure, where Gram negative bacteria leaking from the gastro-intestinal system can cause lethal endotoxemia.
Mice were injected with 0.5, 0.1, 0.02 and 0.004 mg of each peptide. Mice were also treated with dexamethasone as a positive control and vehicle as a negative control. Two hours later each mouse was injected with LPS. Samples were taken 90 minutes after LPS injection.
To evaluate the effect of different amino acids in the SP16 peptide for the immunomodulating effect, we created an alanine screen. […] The peptides wherein the substitution occurred within amino acids 4-14 of SP16, appeared to maintain and rather improve their capacity to reduce TNF-alpha levels compared to the control Dexamethasone. […]

A short description of data set [1]: SP16 pharmacokinetic profile, plasma concentration by LC/MS/MS. It counts as in vivo, rat. Conditions: SP16, IV (5 mg/kg), normal rats. How it is done:
In performing the assay, three normal rats were injected intravenously with 5 mg/kg SP16 and the plasma concentration of SP16 established at 8 time points following the injection. […] The assay was executed by Apredica, Boston, Mass.

For a further data set, the target named is T1, hERG (Homo sapiens, UniProt Q12809).
T1 construct: Apredica (contract study)
Nature of the data set: hERG FastPatch assay. It counts as cell-based. As to conditions: test conc 0.008-25 μM. (The hERG channel carries a current that helps repolarise heart muscle cells.)

Another data set deals with 111 human receptors. Nature of the data set: GenSEP Explorer panel, human receptor panning. As to conditions: whole GenSEP Explorer panel. The text has this: In addition, we also performed a profile using human receptor panning. The GenSEP Explorer panel contains 111 in vitro assay targets carefully selected to assess drug/chemical biological activities. Assay categories include GPCRs, Voltage-Gated Ion Channels, Ligand-Gated Ion Channels, Neurotransmitter transporters, Nuclear Receptors and Steroids as well as a diverse set of biochemical targets including Phosphodiesterases, Kinases and other relevant enzymes.

The target of a further data set is T2, TLR-2 (Mus musculus, UniProt Q9QUN7).
T2 construct: host or cells: HEK-Blue mTLR2 (engineered HEK reporter line secreting alkaline phosphatase)
As to the kind of experiment: TLR-2 indicator cell line assay (HEK-Blue mTLR2, Invivogen), secreted alkaline phosphatase. It counts as cell-based. As to conditions: 20 μg/ml peptide for 24 hours (FIGS. 12, 13). As to the method: Graph summarizing representative data from assays with an engineered TLR-2 indicator cell line (HEK-Blue™ mTLR2, Invivogen). Cells were incubated with the indicated concentrations of peptide for 24 hours. Upon TLR2 activation, the cells secrete alkaline phosphatase which can be assayed. The assay was done in triplicate and averages with standard deviations are plotted.
Graph summarizing data from an experiment where an engineered TLR-2 indicator cell line (HEK-Blue™ mTLR2, Invivogen) was used to test the impact of substituting amino acid residues of the SP16 peptide with alanine (“alanine scan”). Cells were incubated with 20 μg/ml of the indicated peptides for 24 hours. Upon TLR2 activation, the cells secrete alkaline phosphatase which can be assayed. The assay was done in triplicate and averages are plotted. Peptide sequences are shown in the following figure. *p<0.05, compared with scrambled control (SP34).
We also performed a peptide optimization assay using an alanine scan with the TLR-2 assay. Data was obtained using an experiment with an engineered TLR-2 indicator cell line (HEK-BLUE™ mTLR2, Invivogen). Cells were incubated with the 20 μg/ml of the indicated peptides for 24 hours. Upon TLR2 activation, the cells secrete alkaline phosphatase which can be assayed. The assay was done in triplicate and averages are plotted. […]

“Also recorded” adds a separate entry of the source.

T1 sequence (Q12809 whole entry): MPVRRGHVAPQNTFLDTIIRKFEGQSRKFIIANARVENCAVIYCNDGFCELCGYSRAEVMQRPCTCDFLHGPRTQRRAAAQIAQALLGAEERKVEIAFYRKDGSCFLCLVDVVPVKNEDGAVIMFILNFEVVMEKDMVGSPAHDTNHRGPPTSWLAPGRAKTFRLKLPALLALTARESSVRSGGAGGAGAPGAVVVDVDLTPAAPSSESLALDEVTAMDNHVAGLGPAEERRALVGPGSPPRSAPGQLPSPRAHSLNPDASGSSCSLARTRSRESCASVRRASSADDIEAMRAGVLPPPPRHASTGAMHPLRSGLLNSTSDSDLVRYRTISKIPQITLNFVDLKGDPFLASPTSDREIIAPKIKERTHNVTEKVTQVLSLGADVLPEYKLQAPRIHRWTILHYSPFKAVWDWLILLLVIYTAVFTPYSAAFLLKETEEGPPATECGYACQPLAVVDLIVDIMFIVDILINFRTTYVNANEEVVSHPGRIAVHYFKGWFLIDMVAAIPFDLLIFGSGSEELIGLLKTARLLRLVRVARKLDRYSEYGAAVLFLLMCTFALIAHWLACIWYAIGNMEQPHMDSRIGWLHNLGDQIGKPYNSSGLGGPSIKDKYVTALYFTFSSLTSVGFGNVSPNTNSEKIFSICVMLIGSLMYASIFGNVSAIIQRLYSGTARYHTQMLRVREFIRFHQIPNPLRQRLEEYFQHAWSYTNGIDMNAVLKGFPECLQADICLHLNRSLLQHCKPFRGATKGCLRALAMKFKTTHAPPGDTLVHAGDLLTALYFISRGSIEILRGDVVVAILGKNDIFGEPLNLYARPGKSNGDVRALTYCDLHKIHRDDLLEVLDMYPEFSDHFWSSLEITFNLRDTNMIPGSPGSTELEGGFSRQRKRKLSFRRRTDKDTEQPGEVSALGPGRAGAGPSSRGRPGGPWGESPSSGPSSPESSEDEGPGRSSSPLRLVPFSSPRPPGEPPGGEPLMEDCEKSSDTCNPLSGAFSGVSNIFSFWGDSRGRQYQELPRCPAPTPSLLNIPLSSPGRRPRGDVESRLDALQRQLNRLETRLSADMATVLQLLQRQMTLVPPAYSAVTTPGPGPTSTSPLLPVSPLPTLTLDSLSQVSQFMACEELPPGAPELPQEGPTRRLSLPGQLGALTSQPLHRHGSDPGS
T2 sequence (Q9QUN7 25-784): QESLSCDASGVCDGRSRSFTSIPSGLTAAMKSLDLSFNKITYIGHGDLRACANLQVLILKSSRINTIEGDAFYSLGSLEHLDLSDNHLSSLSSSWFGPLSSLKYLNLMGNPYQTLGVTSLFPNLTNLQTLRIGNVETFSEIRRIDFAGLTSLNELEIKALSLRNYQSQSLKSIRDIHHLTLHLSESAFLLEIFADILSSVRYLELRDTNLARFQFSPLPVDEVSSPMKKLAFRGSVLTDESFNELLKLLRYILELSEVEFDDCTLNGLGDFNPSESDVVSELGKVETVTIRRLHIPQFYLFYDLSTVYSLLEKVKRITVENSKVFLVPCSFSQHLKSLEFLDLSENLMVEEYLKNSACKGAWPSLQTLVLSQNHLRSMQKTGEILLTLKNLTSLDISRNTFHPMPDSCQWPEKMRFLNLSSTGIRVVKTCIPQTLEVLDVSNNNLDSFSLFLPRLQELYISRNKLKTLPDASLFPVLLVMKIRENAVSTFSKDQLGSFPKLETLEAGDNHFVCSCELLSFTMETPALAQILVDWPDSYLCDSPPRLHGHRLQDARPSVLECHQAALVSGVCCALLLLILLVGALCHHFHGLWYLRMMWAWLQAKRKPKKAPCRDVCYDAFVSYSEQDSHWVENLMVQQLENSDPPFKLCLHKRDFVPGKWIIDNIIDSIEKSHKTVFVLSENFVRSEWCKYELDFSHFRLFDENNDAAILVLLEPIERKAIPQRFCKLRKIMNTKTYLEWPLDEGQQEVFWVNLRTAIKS

Turning to “V K F N K P F V F L M I A A A T K (VKFNKPFVFLMIAAATK; listed as Homo sapiens) [SP49]”, in the data set with LPS challenged mice, the TNF-alpha levels entry was “reduce TNF-alpha levels more than Dexamethasone”.

For “V K F N K P A A A L M I E Q N T K (VKFNKPAAALMIEQNTK; listed as Homo sapiens) [SP43]”, in the data set on LPS challenged mice, the TNF-alpha levels entry is on record as “reduce TNF-alpha levels more than Dexamethasone”.

Regarding `CC[C@H](C)[C@H](NC(=O)[C@H](CCSC)NC(=O)[C@H](CC(C)C)NC(=O)[C@H](Cc1ccccc1)NC(=O)[C@@H](NC(=O)[C@H](Cc1ccccc1)NC(=O)[C@@H]1CCCN1C(=O)[C@H](CCCCN)NC(=O)[C@H](CC(N)=O)NC(=O)[C@H](Cc1ccccc1)NC(=O)[C@H](CCCCN)NC(=O)[C@@H](N)C(C)C)C(C)C)C(=O)N[C@@H](CCC(=O)O)C(=O)N[C@@H](CCC(N)=O)C(=O)N[C@@H](CC(N)=O)C(=O)N[C@H](C(=O)N[C@@H](CCCCN)C(=O)O)[C@@H](C)O` [SP16], the Last Time point in data set [1] is 8 h. The “hERG inhibition (comment)” value on hERG was “does not inhibit hERG; also recorded: No concentration-dependent inhibition”. Further, the “effect on 111 human receptors” value with 111 human receptors is “no effect”.

On to “A A A N K P F V F L M I E Q N T K (AAANKPFVFLMIEQNTK; listed as Homo sapiens) [SP37, SP16 with residues 1-3 substituted with alanines]”, for which the “impact on TLR-2 signaling (alanine scan)” value in the data set with TLR-2 was “no impact on TLR2”.

For the molecule “V K F N K P F V F A A A E Q N T K (VKFNKPFVFAAAEQNTK; listed as Homo sapiens) [SP46]”, the TNF-alpha levels entry in the data set with LPS challenged mice is “reduce TNF-alpha levels more than Dexamethasone”.

Take “V K F A A A F V F L M I E Q N T K (VKFAAAFVFLMIEQNTK; listed as Homo sapiens) [SP40]”: the TNF-alpha levels entry in the data set with LPS challenged mice is given as “reduce TNF-alpha levels more than Dexamethasone”.

The values are drawn from patent publication US9951104B2, “Peptides and methods of using same” (Serpin Pharma, LLC, priority 2012, dated 2018).
